Literature values in patent US10376470B2, “Oral tablet formulation consisting of fixed combination of rosuvastatin and ezetimibe for treatment of hyperlipidemia and cardiovascular diseases” (Althera Life Sciences, LLC, priority 2012, dated 2019).

Solubility in water: practically insoluble
SMILES: O=C1[C@H](CC[C@H](O)c2ccc(F)cc2)[C@@H](c2ccc(O)cc2)N1c1ccc(F)cc1 [Ezetimibe, ezetimibe]
